In US6479555B1, “Method for inducing hepatic fibrosis by repeated administration of allylalcohol” (priority 2000, dated 2002):

What was measured:
mouse = mouse treated with carbon tetrachloride, cited from earlier work
[1] = test system: Spraque Dawley male white mice; experiment: Extent of hepatic fibrosis by histological examination (Batts and Ludwig classification) after repeated allylalcohol injection; type: in vivo, white mouse
Procedure: (§1) Of the forty total Spraque Dawley male white mice(weight 150-200 g), 10 mice were used as a control group and 30 mice were treated with allylalcohol.
(§2) 30 mice with treated allylalcohol were devided into three groups, each containing 10 mice. The 1st group was administered an injection with allylalcohol dissolved in saline solution with 0.3 mmole/kg into a peritoneal cavity twice a week. The 2nd and 3rd groups received 0.62 mmole/kg and 0.93 mmole/kg of allylalcohol, respectively, via the same method.
(§3) The animals were maintained 23° C. and 40% of relative humidity. The intensity of illumination was maintained for 12 hours from 6 A.M. to 6 P.M. They were sacrificed after 8 weeks.
(§4) The present inventors used total of 30 Spraque-Dawley male white mice, injected 0.62 mmole/kg allylalcohol into the peritoneal cavity twice a week, and sacrificed ten mice each time after 4 weeks, 8 weeks, and 16 weeks.
(§5) The liver tissues of 30 mice obtained from the Example <1-2> were fixed in 10% formalin solution, stained with Masson's trichrome, and observed for the determination of fibrosis under light microscope.

[2] = test system: Spraque-Dawley male white mice; experiment: Quantification of hepatic fibrosis by the numerical scoring system; type: in vivo, white mouse
Excerpt: In order to include width of fibrosis septa and fibrosis development in sinusoid as well as that between the portals, these inventors had quantified the extent of the fibrosis using the numerical scoring system reported by Castilla-Cortaza(1997) and Oberti (1997).
To systemically analyze the result of the numerical scoring system, these inventors also used the Image precessing and analysis system program (Leica Q500 MC, Leica Cambridge Ltd, Cambridge, U. K., 1994).
The length of septa was classified as score “4” when the septa showing fibrosis from one portal to the other is one whole length, score “3” for up to ⅔, score “2” for up to ⅓, and score “1” for less than ⅓. For the width of septa, the score from 2-6 was given for the mean of widths of three different periportal septa, centriperiveinal septa and perinodal septa at four different sites.
The number for the width of septa was determined by measuring the fibrotic region of blood vessel in one node that score “4” when the whole node was filled with the fibrotic strand and a large number of the septa made the micronode, score “3” when the fibrosis region occupied up to ⅔ of the whole node area, score “2” up to ⅓, and score “1” when the fibrosis strand was little in the node.
as §4, §5

[3] = test system: Spraque Dawley male white mice; experiment: Death during repeated allylalcohol treatment; type: in vivo, white mouse
Procedure: as §1, §2, §3, §4

[4] = test system: Spraque-Dawley male white mice; experiment: Serum alanine aminotransferase (ALT) activity; type: in vivo, white mouse; details: 0.62 mmole/kg i.p. twice a week
Procedure: as §4
To collect a specimen, the white mouse was sacrificed 72 hours after final injection. The mouse was put under general anesthesia using diethylether, and its abdomen was cut open at suspine position. 7-10 ml of whole blood was withdrawn with a syringe treated with heparine, and the liver tissue was extracted.
The collected blood sample was left at room temperature for 30 min, centrifuged at 3,000 g for 10 min. The serum was devided into several fractions and stored at −70° C. until used.
Serum alanine aminotransferase(hereinafter, as referred as “ALT”) activity was measured by using the automatic analyzer (Hitach, 747/200 type), which is based on the spectrophotometric quantification of […] loss using lactic dehydrogenase as a […] (Horder and Rej, 1983).

[5] = test system: Spraque-Dawley male white mice; experiment: Collagen content of liver tissues (dye-binding procedure of Jimenez); type: in vivo, white mouse; details: liver tissue
Procedure: The collagen content of liver tissues was measured by dye-binding procedure of Jimenez. The liver tissue fixed in 10% formalin and embedded in paraffin was sliced by 15 um of thickness and put on a slide glass.
After the paraffin was removed by xylene and alcohol, the sample was stained with the saturated picric acid solution containing 0.01% fast green FCF (Fluka AG, NO 42053, Switzerland), left at room temperature for 15 min, and washed with a phosphate buffer until most color came off. The sample was restained with the saturated picric acid solution containing 0.04% fast green and 0.1% Sirius red F3B (Gurr BDH Chemical Ltd., NO 34149, Poole, England), left at room temperature for 30 min in the darkroom, and washed as before.
The stained tissue sample was transferred into the tube containing 1 ml solution with equal volume of 0.1% sodium hydroxide and methanol, and the tube was slowly shaken until the color dissolved completely. The absorbance of the colored solution was measured with a spectrophotometer. The wavelength for maximum absorbance was 630 nm for fast green, and 540 nm for Sirius red. Since fast green also absorbed a little (7.78%) at 540 nm, these inventors made calculations correcting for the factor.
The amount of collagen per unit protein was obtained with the formula 1 using the color equivalence of 3 OD/mg protein and 37 OD/mg collagen for fast green and Sirius red, respectively. [formula]

TGF β1 mRNA = experiment: Semi-quantitative measurement of TGF β1 mRNA expression in the liver tissue by RT-PCR; type: in vivo, white mouse
Procedure: Total RNA of the mouse liver tissue stored at −70° C. was extracted by one-step method using acid guanidinium thiocyanate-phenol-chloroform (AGPC, 1987) of Chomczynski and Sacchi. […] of the frozen liver tissue was homogenized in 1 ml of denaturing solution (4 M guanidinium thiocyanate, 25 mM sodium citrate, pH 7, 0.5% sarcosyl, 0.1 M 2-mercapto ethanol).
After the addition of 1 ml of phenol and 100 ul of chloroform were added to it, the homogenate was shaken thoroughly for 15 sec, left at 4° C. for 5 min, and centrifuged at 12,000 g and 4° C. for 15 min. The supernatant (aqueous phase) was withdrawn, mixed with equal volume of isopropanol, left at 4° C. for 15 min, and centrifuged as before.
RNA pellet was collected, washed with 75% ethanol twice, and centrifuged at 7,500 g and 4° C. for 8 min to remove ethanol. RNA pellet was dried under vacuum using the Speed Vac concentrator at −70° C. for 15 min. The dried RNA was dissolved in 20 ul of deionized distilled water(DDW) treated with 0.1% di-ethyl-pyro-carbonate (DEPC), and stored at −70° C. RNA concentration was determined by spectrophotometric measurement of absorbance at 260 nm. When the absorption ratio of A260/A280 used as an index of purity, exceeds 1.8, RNA samples were considered pure.
For the synthesis of cDNA of TGF β1 mRNA, 2 ul of total RNA extracted from the mouse liver tissue was mixed with 10 unit of Molony murine leukemia virus reverse transcriptase(M-MuLV RT), 100 ng of oligo-dT15, 1 ul of dNTP (dGTP, dATP, dTTP, dCTP), RNase inhibitor 20 unit, 0.5 ul of 100 mM dithitritol (DTT) and 4 ul of 5×buffer solution, and total volume of the reaction mixture was adjusted to 20 ul by adding 0.1% DEPC-treated DDW.
The reaction mixture was heated at 37° C. for 90 min and 95° C. for 5 min, and rapidly cooled down on ice. 80 ul of DDW was added to this cDNA mixture which was then used as a PCR template.
For amplification of TGF β1 cDNA template, a sense-primer represented by SEQ ID NO.1 and an antisense-primer represented by SEQ ID NO.2 was synthesized. The position and the PCR product size of the primer set were described in Table 7. The concentration of the synthesized primer was adjusted to 10 pmole/ul by dissolving in TE buffer solution and stored at −20° C. until used.
cDNA solution was diluted by two times until the concentration was to be 2^−1, 2^−2, 2^−3, , , , , and 2^−10, and used as PCR templates. 50 ul total of PCR reaction solution contained 4 ul of cDNA template solution, 1 unit of Taq DNA polymerase, each of 1 ul the antisense and the sense primer, 1 ul of dNTP, 5 ul of 10×buffer solution (containing 2.5 mM MgCl2) and 37.7 ul of DDW.
To prevent vaporization of the sample at high temperature, 20 ul of mineral oil was added to the reaction mixture. PCR reaction was performed with PCR automated thermal cycler (Perkin Elmer) by using a hot start method. The hot start method included a denaturation step at 94° C. for 4 min, and the primer annealing and extension step at 65° C. for 15 min (at this step, Taq DNA polymerase was added after 10 min).
The reaction system then underwent 35 cycles of heating 94° C. for 45 sec, 60° C. for 45 sec, and 72° C. for 2 min, and the extension step was completed with 5 min heating at 72° C. In the RNA synthesis, negative control was distilled water, and positive control was 1 ul of TGF β1 cDNA fragment solution provided from a Clontech Laboratory.
The amplified PCR product mixed with 6×DNA loading buffer (0.25% bromophenol blue, 0.25% xylene cylanol, 30% glycol) was analyzed by electrophoresis using 2% agarose gel containing 1 ul ethidium bromide with 1×TBE buffer solution(89 mM tris-borate, 2 mM EDTA). After the electrophoresis at 100 volt for 60 min, UV transilluminator was used to establish the visible band(FIG. 3).

periportal liver = details: in vivo; cited from earlier work
[6] = 0.62 mmole/kg i.p. twice a week, 16 weeks
[7] = 2nd group, 0.62 mmole/kg i.p. twice a week, 8 weeks
[8] = liver tissues of the 30 mice of Example 1-2, Masson's trichrome
[9] = 0.62 mmole/kg i.p. twice a week, 4 weeks
[10] = 0.62 mmole/kg i.p. twice a week, 8 weeks

ClC(Cl)(Cl)Cl [carbon tetrachloride]
induction period (mouse; pretreatment with phenobarbitol): 8-10 weeks
time to irreversible accumulation of collagen (mouse): ≤ 20 weeks

C=CCO [allylalcohol, Allylalcohol]
number of mice with cirrhosis [1, 6]: 5
number of mice with moderate hepatic fibrosis [1, 6]: 2
number of mice with severe hepatic fibrosis [1, 6]: 3
number of mice with mild hepatic fibrosis [1, 7]: 1
number of mice with severe hepatic fibrosis [1, 7]: 5
number of mice with severe hepatic fibrosis ([1]; 3rd group, 0.93 mmole/kg i.p. twice a week, 8 weeks): 2
number of samples classified as cirrhosis [1, 8]: 5
number of samples classified as mild [1, 8]: 7
number of samples classified as moderate [1, 8]: 5
number of samples classified as normal [1, 8]: 4
number of samples classified as severe [1, 8]: 8
number of mice with numerical score 1 [2, 9]: 10
number of mice with numerical score 8 [2, 10]: 4
number of mice with numerical score 9 [2, 10]: 1
number of mice with numerical score 10 [2, 10]: 1
number of mice with numerical score 11 [2, 10]: 2
number of mice with numerical score 12 [2, 10]: 1
number of mice with numerical score 7 [2, 6]: 1
number of mice with numerical score 8 [2, 6]: 1
number of mice with numerical score 10 [2, 6]: 1
number of mice with numerical score 11 [2, 6]: 1
number of mice with numerical score 12 [2, 6]: 3
number of mice with numerical score 13 [2, 6]: 2
number of mice with numerical score 14 [2, 6]: 1
extent of hepatic fibrosis by the numerical scoring system, all the animals ([2]; 4-week group, 0.62 mmole/kg i.p. twice a week): less than 2
extent of hepatic fibrosis by the numerical scoring system, all the animals ([2]; 8-week group, 0.62 mmole/kg i.p. twice a week): higher than 7
extent of hepatic fibrosis by the numerical scoring system, all the animals ([2]; 16-week group, 0.62 mmole/kg i.p. twice a week): higher than 7
numerical score ([2]; cirrhosis group of the 30 treated mice): 12.4±1.5
numerical score ([2]; mild group of the 30 treated mice): 2.6±1
numerical score ([2]; moderate group of the 30 treated mice): 9.0±1.7
numerical score ([2]; printed 'control group' (first histological class) of the 30 treated mice): 1.0±0
numerical score ([2]; severe group of the 30 treated mice): 9.8±1.5
number of tissue samples with score of 1-6 ([2]; treated mice of Example 1-2): 10
number of tissue samples with score of 7-10 ([2]; treated mice of Example 1-2): 9
number of tissue samples with score of 11-14 ([2]; treated mice of Example 1-2): 10
death (number of mice) [3, 9]: 0
death (number of mice) ([3]; 0.62 mmole/kg i.p. twice a week, 8 weeks (Example 1-2)): 1
death (number of mice) [3, 6]: 0
death (number of mice) ([3]; 1st group, 0.3 mmole/kg i.p. twice a week, 8 weeks): 0
ALT activity ([4]; 4 weeks): 69.6±39.8 U/L
ALT activity ([4]; 8 weeks): 63.8±9.6 U/L
ALT activity ([4]; 16 weeks): 75.5±15.9 U/L
Collagen content ([5]; treated for 4 weeks): 110.2±11.9 ug collagen/mg protein
Collagen content ([5]; treated for 8 weeks): 132.5±29.3 ug collagen/mg protein
Collagen content ([5]; treated for 16 weeks): 157.2±94.7 ug collagen/mg protein
Collagen content ([5]; treated mice with score 1-6): 110.2±11.9 ug collagen/mg protein
Collagen content ([5]; treated mice with score 7-10): 131.4±30.0 ug collagen/mg protein
Collagen content ([5]; treated mice with score 11-14): 158.2±94.2 ug collagen/mg protein
TGF β1 mRNA (TGF β1 mRNA; treated for 4 weeks, Table 9 line printed 'Score 1-6'): 4.7±2.4 unit/total RNA 2 ug
TGF β1 mRNA (TGF β1 mRNA; treated for 8 weeks, Table 9 line printed 'Score 7-10'): 5.8±1.0 unit/total RNA 2 ug
TGF β1 mRNA (TGF β1 mRNA; treated for 16 weeks, Table 9 line printed 'Score 11-14'): 5.7±2.3 unit/total RNA 2 ug
TGF β1 mRNA (TGF β1 mRNA; treated mice with score 1-6): 4.7±2.4 unit/total RNA 2 ug
TGF β1 mRNA (TGF β1 mRNA; treated mice with score 7-10): 5.8±1.5 unit/total RNA 2 ug
TGF β1 mRNA (TGF β1 mRNA; treated mice with score 11-14): 5.7±2.0 unit/total RNA 2 ug

C=CC=O [Acrolein, acrolein]
liver toxicity (periportal liver): intense liver toxicity
